Where two headings read alike, the source gives them in different places.
Columns and labels:
[1] = system: estrogen-primed immature rabbits; conditions: cited from earlier work
[2] = system: endometrium of estrogen-primed ovariectomized or climacteric women; conditions: cited from earlier work
cycling rats [3] = conditions: literature; cited from earlier work
[4] = biological target: T1, Cytosol Progesterone Receptor of the Estrogen-primed Immature Rabbit Uterus (Oryctolagus cuniculus, UniProt P06186); experiment: Relative binding affinity for progesterone receptor (competition with 3H-progesterone); design: species or system rabbit (New Zealand White); conditions: 16-18 hour incubation, progesterone = 100
T1 construct: cytosol progesterone receptor of the estrogen-primed immature rabbit uterus; tissue Dutchland Laboratories, Inc., Denver, Pa (animals); host or cells: uterus cytosol of estradiol-treated immature female New Zealand White rabbits
T1 sequence (P06186 1-930): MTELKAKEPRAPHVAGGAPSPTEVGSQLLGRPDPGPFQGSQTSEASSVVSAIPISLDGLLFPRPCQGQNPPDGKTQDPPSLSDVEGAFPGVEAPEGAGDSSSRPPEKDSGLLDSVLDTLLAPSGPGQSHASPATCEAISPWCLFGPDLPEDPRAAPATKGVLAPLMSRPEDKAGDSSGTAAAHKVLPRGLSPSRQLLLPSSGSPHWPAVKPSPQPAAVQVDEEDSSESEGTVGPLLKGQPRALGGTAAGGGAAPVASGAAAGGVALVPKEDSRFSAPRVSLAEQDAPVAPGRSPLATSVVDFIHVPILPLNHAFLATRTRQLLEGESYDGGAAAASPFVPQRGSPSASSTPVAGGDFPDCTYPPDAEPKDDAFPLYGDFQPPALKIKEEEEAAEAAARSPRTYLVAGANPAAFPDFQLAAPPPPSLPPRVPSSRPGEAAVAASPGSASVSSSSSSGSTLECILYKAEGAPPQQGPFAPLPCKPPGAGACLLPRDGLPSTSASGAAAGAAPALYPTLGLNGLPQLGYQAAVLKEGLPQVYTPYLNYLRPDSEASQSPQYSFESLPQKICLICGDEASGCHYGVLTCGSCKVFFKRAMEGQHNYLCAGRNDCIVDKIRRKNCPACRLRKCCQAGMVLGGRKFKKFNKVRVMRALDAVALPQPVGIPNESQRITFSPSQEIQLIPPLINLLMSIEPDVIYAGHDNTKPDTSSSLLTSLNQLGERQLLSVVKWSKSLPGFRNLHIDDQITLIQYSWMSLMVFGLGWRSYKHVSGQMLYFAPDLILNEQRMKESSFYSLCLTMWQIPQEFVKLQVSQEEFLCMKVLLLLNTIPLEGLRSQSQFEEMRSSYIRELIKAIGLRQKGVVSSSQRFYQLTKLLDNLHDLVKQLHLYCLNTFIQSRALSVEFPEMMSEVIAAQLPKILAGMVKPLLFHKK
Method: RBA values recorded at 0° C. after short incubation times (e.g., 2 hr) mainly reflect differences in the association rate constants of the competing ligands, whereas those measured after long incubation times (e.g., 16 to 24 hr) and/or higher temperatures predominantly are influenced by differences in the dissociation rate constants of the competing ligands. RBA's determined after short incubation times primarily reflect the association of the competitor compared to the natural hormone. Conversely, RBA's measured after long incubation times reflect the dissociation rate of the competitor compared to the natural hormone.
The assay components are combined, allowed to equilibrate, and unbound radioactivity removed by charcoal adsorption.
Animal species. Immature female New Zealand White rabbits weighing 0.8 to 1.0 kg (Dutchland Laboratories, Inc., Denver, Pa).
Pretreatment. Subcutaneous treatment with 15 μg 17β-estradiol/0.6 ml sesame oil each morning (0830 to 0930 hr) for three days. Animals sacrificed 24 hr after final injection.
Tissue. Uterus; each uterus weighed about 1.0 g and two or three uteri were pooled for each assay.
Buffer. (A) 0.01M TES, pH 7.4, 1 mM EDTA, 0.012M thioglycerol and 30% glycerol for cytosol preparation and ^3 H-steroid, unlabeled hormone and compound solutions. (B) 0.01M TES, pH 7.4, 1 mM EDTA and 0.012M thioglycerol for charcoal solution.
Homogenization. Five or six 5-second bursts with 30 second cooling periods between bursts using Brinkman Polytron Pt. 10 at 3.5 rheostat setting.
Temperature. 0°-4° C. for all steps.
Centrifugation. 45,000 rpm for 1 hr, 50 Ti rotor, Beckman L8-80 ultracentrifuge.
Incubation. 16-18 hr at 4°-6° C.
Concentations. 1×10^-10 M to 1×10^-5 M (7 concentrations).
Method. Charcoal adsorption method used to remove unbound radioactivity. Five-tenths ml of dextran-coated charcoal (0.5% Norit A and 0.05% dextran T-70) added to all tubes except total radioactivity tubes (0.5 ml buffer [B] added), tubes vortexed 3-5 sec, allowed to sit for 10 minutes and centrifuged 10 minutes at 2000 rpm in Beckman TJ-6 centrifuge at 0°-4° C.
Data Interpretation. […] The relative binding affinity (RBA) of each compound was calculated by using the following equation. [formula] where

[5] = in vivo; cited from earlier work
[6] = system: curettage specimens of endometrial cancer patients; conditions: i.m. twice weekly 3-7 weeks after polyestradiol phosphate 80 mg; all 12 patients; cited from earlier work
[7] = system: uterine endometrium of estrone-primed immature rabbits; experiment: Clauberg assay (progestational activity, McPhail); format: in vivo, rabbit (New Zealand White); conditions: sc
cycling rats [8] = experiment: Blockade of ovulation in rats; format: in vivo, rat (Charles River CD); conditions: for No. Rats Ovulated (of rats treated) / No. of Oviductal Eggs in Rats that Ovulated (X ± S.D.): single sc
Text: The treated rats were sacrificed on the morning of expected estrus and eggs, if present, were flushed from the oviducts and counted. | *This assay employs cycling Charles River CD rats. For methods refer to | Beattie, C. W. and A. Corbin, Endocrinology 97, 885, 1975. […] | diestrus. Rats were sacrificed 43 to 44 hr later on the morning of | expected estrus. Eggs, if present, were flushed from oviducts and counted | under a stereomicroscope.

[9] = system: androgen target organs of castrate immature male rats; experiment: Anti-androgenic activity in the castrate immature rat assay; format: in vivo
Method: The oral anti-androgenic activity of 6-methyl-6-dehydro-17α-ethynylprogesterone was evaluated in the castrate immature male rat assay [Lerner et al., Proc. Soc. […] The assay is briefly described in the footnotes to Table 11.
*This assay employs castrate immature rats. For methods refer to Lerner,
L. J., A. Bianchi and A. Borman, Proc. Soc.
**Groups of rats (7/group) were given daily injections of 0.3 ml sesame
oil (control) or compound (in 0.3 ml sesame oil) for 7 days. Some groups
also concurrently received progestational compounds by the sc or oral
route of administration in order to evaluate antiandrogenic activity. One
day after the final doses, the animals were sacrificed and the androgen
target organs indicated were weighed.
***Statistically significant (p < 0.05) lower organ weights versus the
testosterone, sc, (400 μg/rat/day) group as determined by Analysis of
Variance coupled with Duncan's Multiple Range Test.

[10] = biological target: T1, Cytosol Progesterone Receptor of the Estrogen-primed Immature Rabbit Uterus; conditions: relative to progesterone = 100; literature; cited from earlier work
[11] = general knowledge; cited from earlier work
[12] = sc 25 μg/rat daily + testosterone sc 400
[13] = sc 100 μg/rat daily + testosterone sc 400
[14] = sc 400 μg/rat daily + testosterone sc 400

For `C#C[C@]1(O)CC[C@H]2[C@@H]3CCC4=CC(=O)CC[C@@H]4[C@H]3CC[C@@]21CC` (relative stereo) [(±)Norgestrel], the “Threshold or effective dose, Clauberg Assay” value ([1]; oral) is given as 0.03-0.1 mg/animal, the “Threshold or effective dose, Clauberg Assay” value ([1]; s.c. (i.m.)) is given as 0.03 mg/animal and the “Threshold or effective dose, Kaufman Assay” value ([2]; oral) is given as 12 mg/cycle. For the same molecule, the “effectiveness in suppressing ovulation relative to progesterone (Beattie and Corbin 1975), in words” value (cycling rats [3]) was “five times as effective as progesterone”.

In the case of `CC(=O)O[C@]1(C(C)=O)CC[C@H]2[C@@H]3CCC4=CC(=O)CC[C@]4(C)[C@H]3CC[C@@]21C` [17α-Acetoxyprogesterone (Prodox ®), 17α-Acetoxyprogesterone, reference compound], the RBA ([4]; Assay 5) is given as 122%, the RBA ([4]; Assay 6) is given as 114% and the “thromboembolic episodes, in words” value [5] is given as “higher rate of thromboembolic episodes”.

For `CCCCCC(=O)O[C@]1(C(C)=O)CC[C@H]2[C@@H]3CCC4=CC(=O)CC[C@]4(C)[C@H]3CC[C@@]21C` [17α-hydroxyprogesterone caproate], the “inhibition of nucleic acid synthesis, in words” value [6] is given as “Significant inhibition of nucleic acid synthesis”.

In the case of `CCCCCC(=O)O[C@]1(C(C)=O)CC[C@H]2[C@@H]3CCC4=CC(=O)CC[C@@H]4[C@H]3CC[C@@]21C` [19-nor-17α-hydroxyprogesterone caproate], the “inhibition of nucleic acid synthesis, in words” value [6] is given as “Significant inhibition of nucleic acid synthesis”.

With `CC(=O)[C@H]1CC[C@H]2[C@@H]3CCC4=CC(=O)CC[C@]4(C)[C@H]3CC[C@]12C` [Progesterone] the “Uterine Weight (X ± S.D.)” value ([7]; 50 μg/rabbit daily) was 1.09 ± 0.09 g, the “Uterine Weight (X ± S.D.)” value ([7]; 100 μg/rabbit daily) was 1.64 ± 0.23 g and the “ovulation, in words” value (cycling rats [8]; 500 μg progesterone, 100, 250 or 500 μg 17α-ethynylprogesterone) was “ovulation was blocked in most rats”. The “ovulation, in words” value (cycling rats [8]; 100 or 250 μg progesterone, 50 μg 17α-ethynylprogesterone) was “ovulated in a normal fashion”, the “No. Rats Ovulated (of rats treated)” value (cycling rats [8]; 100 μg/rat) was 5/5 and the “No. of Oviductal Eggs in Rats that Ovulated (X ± S.D.)” value (from here on “No. of Oviductal Eggs”) (cycling rats [8]; 100 μg/rat) was 7.8 ± 3.8. For the same molecule, the “No. Rats Ovulated (of rats treated)” value (cycling rats [8]; 250 μg/rat) was 4/5, the “No. of Oviductal Eggs” value (cycling rats [8]; 250 μg/rat) was 7.0 ± 3.8 and the “No. Rats Ovulated (of rats treated)” value (cycling rats [8]; 500 μg/rat) was 1/4. The “No. of Oviductal Eggs” value (cycling rats [8]; 500 μg/rat) was 9.0, the “Levator Ani weight (X ± S.D.)” value [9, 12] was 54 ± 15 mg and the “Seminal Vesicles weight (X ± S.D.)” value [9, 12] was 157 ± 19 mg. For the same molecule, the “Ventral Prostate weight (X ± S.D.)” value [9, 12] was 71 ± 28 mg, the “Levator Ani weight (X ± S.D.)” value [9, 13] was 58 ± 15 mg and the “Ventral Prostate weight (X ± S.D.)” value [9, 13] was 80 ± 27 mg. For the same molecule, the “Levator Ani weight (X ± S.D.)” value [9, 14] was 59 ± 14 mg, the “Seminal Vesicles weight (X ± S.D.)” value [9, 14] was 162 ± 26 mg and the “Ventral Prostate weight (X ± S.D.)” value [9, 14] was 60 ± 26 mg. The “anti-androgenic activity, in words” value ([9]; with testosterone sc 400 μg/rat/day, doses up to 400 μg/rat/day (progestagen oral; progesterone sc)) was “inactive”, the “RBA (Kontula et al. 1975)” value [10] was 100 and the “Threshold or effective dose, Clauberg Assay” value ([1]; oral) was 10.0 mg/animal. The “Threshold or effective dose, Clauberg Assay” value ([1]; s.c. (i.m.)) was 0.5 mg/animal, the “Threshold or effective dose, Kaufman Assay” value ([2]; i.m.) was 200 mg/cycle and the “oral progestational activity, in words” value [11] was “only weakly active when taken orally”.

Source: patent publication US4512986A, “Progrestationally active steroids” (priority 1983, dated 1985)
